In ChEMBL document CHEMBL5291721, “A preclinical secondary pharmacology resource illuminates target-adverse drug reaction associations of marketed drugs” (Nat Commun, 2023):

Legend:
[1] = molecular target: T1, Androgen receptor (Homo sapiens, UniProt P10275)
T1 sequence (P10275 whole entry): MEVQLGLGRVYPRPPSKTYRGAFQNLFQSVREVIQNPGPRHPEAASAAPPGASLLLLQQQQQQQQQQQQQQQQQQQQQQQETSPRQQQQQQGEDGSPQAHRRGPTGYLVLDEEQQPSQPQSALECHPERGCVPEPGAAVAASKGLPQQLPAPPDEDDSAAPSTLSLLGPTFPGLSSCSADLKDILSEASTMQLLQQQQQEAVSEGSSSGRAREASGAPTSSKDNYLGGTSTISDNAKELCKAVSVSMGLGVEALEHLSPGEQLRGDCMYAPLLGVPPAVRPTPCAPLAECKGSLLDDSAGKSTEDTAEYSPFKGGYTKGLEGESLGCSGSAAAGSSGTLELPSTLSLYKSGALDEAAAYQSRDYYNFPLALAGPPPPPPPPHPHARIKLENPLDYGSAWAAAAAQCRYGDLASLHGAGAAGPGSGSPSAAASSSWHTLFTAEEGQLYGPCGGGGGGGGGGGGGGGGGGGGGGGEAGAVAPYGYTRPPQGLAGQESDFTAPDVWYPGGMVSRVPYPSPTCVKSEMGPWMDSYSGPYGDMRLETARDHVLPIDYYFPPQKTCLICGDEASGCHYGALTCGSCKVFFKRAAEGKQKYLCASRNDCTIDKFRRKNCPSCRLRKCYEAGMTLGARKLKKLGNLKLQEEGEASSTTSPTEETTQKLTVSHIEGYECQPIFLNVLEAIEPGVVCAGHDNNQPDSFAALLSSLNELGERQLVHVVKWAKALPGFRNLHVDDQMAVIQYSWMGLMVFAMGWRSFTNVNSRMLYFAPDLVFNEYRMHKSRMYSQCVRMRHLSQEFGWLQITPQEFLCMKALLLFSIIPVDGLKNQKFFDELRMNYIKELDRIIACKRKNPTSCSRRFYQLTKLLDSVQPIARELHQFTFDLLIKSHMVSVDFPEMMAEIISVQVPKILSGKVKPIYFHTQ

[2] = molecular target: T2, Glucocorticoid receptor (Homo sapiens, UniProt P04150); format: functional
T2 sequence (P04150 whole entry): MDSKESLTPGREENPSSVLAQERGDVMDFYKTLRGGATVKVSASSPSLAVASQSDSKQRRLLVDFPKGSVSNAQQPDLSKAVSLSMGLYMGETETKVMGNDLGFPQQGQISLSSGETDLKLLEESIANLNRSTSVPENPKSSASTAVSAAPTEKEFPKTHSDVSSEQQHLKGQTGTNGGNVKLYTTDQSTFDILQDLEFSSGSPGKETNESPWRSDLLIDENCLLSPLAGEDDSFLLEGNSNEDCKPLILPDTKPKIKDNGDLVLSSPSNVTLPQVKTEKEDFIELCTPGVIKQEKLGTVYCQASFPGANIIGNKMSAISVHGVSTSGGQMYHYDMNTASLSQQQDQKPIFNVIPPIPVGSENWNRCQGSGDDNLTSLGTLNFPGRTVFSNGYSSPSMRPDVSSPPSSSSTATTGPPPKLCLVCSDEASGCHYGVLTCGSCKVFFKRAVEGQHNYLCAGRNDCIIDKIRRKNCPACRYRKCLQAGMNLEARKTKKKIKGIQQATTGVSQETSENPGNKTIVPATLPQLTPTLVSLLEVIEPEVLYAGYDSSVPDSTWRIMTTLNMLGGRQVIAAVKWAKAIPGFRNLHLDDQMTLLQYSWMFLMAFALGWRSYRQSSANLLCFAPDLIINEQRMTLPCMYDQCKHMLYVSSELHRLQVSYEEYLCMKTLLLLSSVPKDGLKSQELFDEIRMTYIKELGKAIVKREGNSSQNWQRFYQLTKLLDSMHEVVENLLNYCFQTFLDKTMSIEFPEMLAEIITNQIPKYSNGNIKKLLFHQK

[3] = molecular target: T3, Corticotropin-releasing factor receptor 2 (Homo sapiens, UniProt Q13324)
T3 sequence (Q13324 whole entry): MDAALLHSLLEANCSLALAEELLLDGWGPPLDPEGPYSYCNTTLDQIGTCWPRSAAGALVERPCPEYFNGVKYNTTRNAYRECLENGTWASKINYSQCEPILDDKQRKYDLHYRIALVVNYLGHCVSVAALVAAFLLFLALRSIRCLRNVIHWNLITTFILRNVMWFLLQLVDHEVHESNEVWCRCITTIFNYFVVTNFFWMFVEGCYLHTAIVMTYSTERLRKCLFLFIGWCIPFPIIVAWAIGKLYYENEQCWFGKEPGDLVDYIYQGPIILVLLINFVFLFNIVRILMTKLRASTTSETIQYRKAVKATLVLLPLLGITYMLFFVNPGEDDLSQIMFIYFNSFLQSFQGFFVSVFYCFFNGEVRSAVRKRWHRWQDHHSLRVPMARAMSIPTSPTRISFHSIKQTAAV

[4] = molecular target: T4, Gastric inhibitory polypeptide receptor (Homo sapiens, UniProt P48546)
T4 sequence (P48546 whole entry): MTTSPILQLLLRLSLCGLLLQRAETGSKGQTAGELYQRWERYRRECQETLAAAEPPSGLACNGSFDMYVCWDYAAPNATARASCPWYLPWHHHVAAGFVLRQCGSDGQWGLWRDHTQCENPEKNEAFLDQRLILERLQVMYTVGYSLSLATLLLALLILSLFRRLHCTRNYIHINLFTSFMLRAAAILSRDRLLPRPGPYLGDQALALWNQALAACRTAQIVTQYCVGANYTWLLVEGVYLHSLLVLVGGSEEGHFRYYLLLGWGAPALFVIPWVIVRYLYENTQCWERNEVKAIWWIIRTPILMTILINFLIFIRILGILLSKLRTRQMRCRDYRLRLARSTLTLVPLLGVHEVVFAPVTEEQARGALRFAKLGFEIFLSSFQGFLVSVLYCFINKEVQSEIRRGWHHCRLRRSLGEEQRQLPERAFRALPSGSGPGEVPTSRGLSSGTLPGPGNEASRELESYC

[5] = molecular target: T5, Endothelin receptor type B (Homo sapiens, UniProt P24530)
T5 sequence (P24530 whole entry): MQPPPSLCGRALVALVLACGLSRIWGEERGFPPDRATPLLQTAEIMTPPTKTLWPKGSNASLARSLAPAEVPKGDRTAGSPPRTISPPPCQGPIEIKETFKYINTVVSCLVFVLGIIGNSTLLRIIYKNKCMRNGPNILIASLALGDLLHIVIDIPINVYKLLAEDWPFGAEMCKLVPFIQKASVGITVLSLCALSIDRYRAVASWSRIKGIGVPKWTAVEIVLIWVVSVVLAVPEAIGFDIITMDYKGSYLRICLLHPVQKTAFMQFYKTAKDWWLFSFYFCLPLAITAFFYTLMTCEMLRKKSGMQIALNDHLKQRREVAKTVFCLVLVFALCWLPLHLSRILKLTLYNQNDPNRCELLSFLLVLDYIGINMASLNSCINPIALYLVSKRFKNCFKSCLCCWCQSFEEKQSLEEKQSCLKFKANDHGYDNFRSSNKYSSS
Further: assay procedure not described here.

Structure (SMILES) | AC50 [1] [µM] | AC50 [3] [µM] | AC50 [4] [µM] | AC50 [5] [µM] | other results
CN(C)S(=O)(=O)c1ccc2c(c1)N(CCCN1CCC(CCO)CC1)c1ccccc1S2 [PIPOTIAZINE] | > 30 |  |  |  | 
O=C1Nc2ccc(Cl)cc2[C@@](C#CC2CC2)(C(F)(F)F)O1 [EFAVIRENZ] |  |  |  |  | AC50 [2]: > 30 µM
C[C@H]1CNCCc2ccc(Cl)cc21 [LORCASERIN] |  |  |  |  | AC50 [2]: > 30 µM
COCCCN1CCC(NC(=O)c2cc(Cl)c(N)c3c2OCC3)CC1 [PRUCALOPRIDE] |  |  |  |  | AC50 [2]: > 30 µM
Cc1cn([C@H]2C[C@H](N=[N+]=[N-])[C@@H](CO)O2)c(=O)[nH]c1=O [ZIDOVUDINE] |  | > 30 | > 30 | > 30 | 
CCCCCCOc1nsnc1C1=CCCN(C)C1 [XANOMELINE] | > 30 |  |  |  | 
Cc1cn([C@H]2C=C[C@@H](CO)O2)c(=O)[nH]c1=O [STAVUDINE] |  | > 30 | > 30 | > 30 | 
CCOC(=O)[C@H](CCc1ccccc1)N[C@@H](C)C(=O)N1[C@H](C(=O)O)C[C@@H]2CCC[C@@H]21 |  | > 30 | > 30 | > 30 | 
CS(=O)(=O)c1ccc(C2=C(c3ccccc3)C(=O)OC2)cc1 [ROFECOXIB] |  | > 30 | > 30 | > 30 | 
Cn1nnc2c(C(N)=O)ncn2c1=O [TEMOZOLOMIDE] |  | > 30 | > 30 | > 30 | 
CN(C)CCC(c1ccc(Cl)cc1)c1ccccn1 (stereo not given) [CHLORPHENIRAMINE] |  | > 30 | > 30 | > 30 | 
c1cnc(N2CCN(Cc3ccc4c(c3)OCO4)CC2)nc1 [PIRIBEDIL] |  |  |  |  | AC50 [2]: > 30 µM
C[C@@H](O)[C@H]1C(=O)N2C(C(=O)O)=C(S[C@@H]3CN[C@H](C(=O)N(C)C)C3)[C@H](C)[C@H]12 [MEROPENEM] |  |  |  |  | AC50 [2]: > 300 µM
CC[C@H]1[C@@H](O)[C@@H]2[C@H](CC[C@]3(C)[C@@H]([C@H](C)CCC(=O)O)CC[C@@H]23)[C@@]2(C)CC[C@@H](O)C[C@@H]12 [OBETICHOLIC ACID] | > 30 |  |  |  | 
CNC(=O)c1ccccc1Sc1ccc2c(/C=C/c3ccccn3)n[nH]c2c1 [AXITINIB] |  |  |  |  | AC50 [2]: > 10 µM
COCc1c(C(C)C)nc(C(C)C)c(/C=C/[C@@H](O)C[C@@H](O)CC(=O)O)c1-c1ccc(F)cc1 [CERIVASTATIN] | > 30 |  |  |  | 
CC1=C(C(=O)O)N2C(=O)[C@@H](NC(=O)[C@H](N)c3ccccc3)[C@H]2SC1 [CEPHALEXIN ANHYDROUS] |  | > 30 | > 30 | > 30 | 
CN(C)CCC=C1c2ccccc2C(C)(C)c2ccccc21 |  |  |  |  | AC50 [2]: > 30 µM
C=CCc1ccccc1OCC(O)CNC(C)C (stereo not given) [ALPRENOLOL] | > 0.3 |  |  |  | 

Structure (SMILES) | AC50 [1] [µM] | AC50 [3] [µM] | AC50 [4] [µM] | AC50 [5] [µM] | other results
CCC(=O)NCC[C@@H]1CCc2ccc3c(c21)CCO3 [RAMELTEON] | > 30 |  |  |  | 
CC[C@H]1OC(=O)[C@H](C)[C@@H](O[C@H]2C[C@@](C)(OC)[C@@H](O)[C@H](C)O2)[C@H](C)[C@@H](O[C@@H]2O[C@H](C)C[C@H](N(C)C)[C@H]2O)[C@](C)(O)C[C@@H](C)CN(C)[C@H](C)[C@@H](O)[C@]1(C)O [AZITHROMYCIN] |  | > 30 | > 30 | > 30 | 
CCOC(=O)[C@H](CCc1ccccc1)N[C@@H](C)C(=O)N1[C@H](C(=O)O)C[C@H]2CCCC[C@@H]21 [TRANDOLAPRIL] | > 30 |  |  |  | 
O=C(Cc1ccc(-c2ccccc2)cc1)Nc1ccccn1 [DIFENPIRAMIDE] | > 30 |  |  |  | 
CC(C)Nc1ncccn1 [ISAXONINE] | > 30 |  |  |  | 
OCCN1C[C@H](O)[C@@H](O)[C@H](O)[C@H]1CO [MIGLITOL] | > 30 |  |  |  | 
O=C(OCC(O)CO)c1ccccc1Nc1ccnc2cc(Cl)ccc12 (stereo not given) [GLAFENINE] | > 30 |  |  |  | 
Cc1cc(C#N)cc(C)c1Oc1nc(Nc2ccc(C#N)cc2)nc(N)c1Br [ETRAVIRINE] | > 30 |  |  |  | 
CN(C)CCn1nnnc1SCC1=C(C(=O)O)N2C(=O)[C@@H](NC(=O)Cc3csc(N)n3)[C@H]2SC1 [CEFOTIAM] | > 30 |  |  |  | 
C[C@]12CCC(=O)C=C1CC[C@@H]1[C@@H]2[C@@H](O)C[C@@]2(C)[C@H]1CC[C@]2(O)C(=O)CO [HYDROCORTISONE] |  | > 30 | > 30 | > 30 | 
CN(C)[C@@H](c1cccc(O)c1)[C@H]1CCCC[C@H]1O [CIRAMADOL] | > 30 |  |  |  | 
CC(=O)Nc1ccc(O)cc1 [ACETAMINOPHEN] | > 30 |  |  |  | 
Cc1ccc(-c2cc(C(F)(F)F)nn2-c2ccc(S(N)(=O)=O)cc2)cc1 [CELECOXIB] |  | > 30 | > 30 | > 30 | 
Clc1ccc2nsnc2c1NC1=NCCN1 [TIZANIDINE] |  | > 30 | > 30 | > 30 | 
CN(C)CC(c1ccc(O)cc1)C1(O)CCCCC1 (stereo not given) [DESVENLAFAXINE] | > 30 |  |  |  | 
CC[N+]1(C)[C@@H]2CC(OC(=O)[C@H](CO)c3ccccc3)C[C@H]1[C@@H]1O[C@@H]12 (stereo not given in full) [OXITROPIUM] | > 30 |  |  |  | 
CO[C@H]1C[C@@H]2CC[C@@H](C)[C@@](O)(O2)C(=O)C(=O)N2CCCC[C@H]2C(=O)O[C@H]([C@H](C)C[C@@H]2CC[C@@H](O)[C@H](OC)C2)CC(=O)[C@H](C)/C=C(\C)[C@@H](O)[C@@H](OC)C(=O)[C@H](C)C[C@H](C)/C=C/C=C/C=C/1C [SIROLIMUS] | > 30 | > 30 | > 30 | > 30 | 
CCC(C)n1ncn(-c2ccc(N3CCN(c4ccc(OCC5COC(Cn6cncn6)(c6ccc(Cl)cc6Cl)O5)cc4)CC3)cc2)c1=O (stereo not given) [ITRACONAZOLE] |  | > 30 | > 30 | > 30 | 
O=C(O)c1cc(O)ccc1O [GENTISIC ACID] | > 30 |  |  |  | 
